Measured values published in PubChem BioAssay (NCI).
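Abbreviation: GI50, concentration required for 50% inhibition of growth. Definition used: TGI = concentration required for complete inhibition of growth.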

How the values were obtained:
Assay in all cases: growth of human tumour cells (NCI), 384-well format
[1] = system: SF-295 CNS
[2] = system: A549 NSCLC
[3] = system: SK-MEL-5 melanoma
[4] = system: SK-MEL-28 melanoma
[5] = system: NCI-H23 lung
[6] = system: M14 melanoma
[7] = system: UACC-257 melanoma
[8] = system: NCI-H322M lung
[9] = system: SK-OV-3 ovarian
[10] = system: HL-60(TB) leukemia
[11] = system: NCI/ADR-RES ovarian
[12] = system: CAKI-1 renal
[13] = system: A498 renal
[14] = system: CCRF-CEM leukemia
[15] = system: KM12 colon
[16] = system: MDA-MB-468 breast
[17] = system: COLO 205 colon
[18] = system: HT29 colon
[19] = system: RPMI-8226 leukemia
[20] = system: IGROV1 ovarian
[21] = system: U251 glioblastoma
[22] = system: MALME-3M melanoma
[23] = system: SF-268 CNS
[24] = system: SF-539 CNS
[25] = system: OVCAR-8 ovarian
[26] = system: HOP-92 NSCLC
[27] = system: OVCAR-4 ovarian
[28] = system: UACC-62 melanoma
[29] = system: HOP-62 NSCLC
[30] = system: ACHN renal
[31] = system: MCF7 breast
[32] = system: NCI-H522 lung
[33] = system: MDA-MB-231 breast
[34] = system: EKVX NSCLC
[35] = system: HS 578T breast
[36] = system: MOLT-4 leukemia
[37] = system: OVCAR-3 ovarian
[38] = system: PC-3 prostate
[39] = system: RXF 393 renal
[40] = system: T-47D breast
[41] = system: NCI-H460 NSCLC
[42] = system: NCI-H226 lung
[43] = system: HCC-2998 colon
[44] = system: 786-0 renal
[45] = system: SR leukemia
[46] = system: DU-145 prostate
[47] = system: MDA-MB-435 melanoma
[48] = system: OVCAR-5 ovarian
[49] = system: TK-10 renal
[50] = system: HCT-15 colon
[51] = system: SNB-75 CNS
[52] = system: BT-549 breast
[53] = system: SK-MEL-2 melanoma
[54] = system: SN12C renal
[55] = system: SW-620 colon
[56] = system: SNB-19 CNS

N[C@H]1C[C@@H]1c1ccc(-c2cccc(O)c2)cc1
GI50 [1]: 33.9 µM
TGI [1]: > 100 µM
GI50 [2]: 44.9 µM
TGI [2]: > 100 µM
GI50 [3]: 14.1 µM
TGI [3]: 27.2 µM
GI50 [4]: 22.5 µM
TGI [4]: 43.9 µM
GI50 [5]: 23.3 µM
TGI [5]: 65.6 µM
GI50 [6]: 20.1 µM
TGI [6]: 36.5 µM
GI50 [7]: 19.2 µM
TGI [7]: 34.4 µM
GI50 [8]: 74.5 µM
TGI [8]: > 100 µM
GI50 [9]: 20 µM
TGI [9]: 48.8 µM
GI50 [10]: 14.3 µM
TGI [10]: 27.5 µM
GI50 [11]: 38.8 µM
TGI [11]: > 100 µM
GI50 [12]: 24.6 µM
TGI [12]: 50.9 µM
GI50 [13]: 20.3 µM
TGI [13]: 60.3 µM
GI50 [14]: 15 µM
TGI [14]: 28.4 µM
GI50 [15]: 20.1 µM
TGI [15]: 37.8 µM
GI50 [16]: 4.18 µM
TGI [16]: 20.1 µM
GI50 [17]: 43.9 µM
TGI [17]: > 100 µM
GI50 [18]: 24.6 µM
TGI [18]: 64.3 µM
GI50 [19]: 18.4 µM
TGI [19]: 34.9 µM
GI50 [20]: 44.1 µM
TGI [20]: > 100 µM
GI50 [21]: 24.1 µM
TGI [21]: 55.5 µM
GI50 [22]: 16.8 µM
TGI [22]: 31.1 µM
GI50 [23]: 36.6 µM
TGI [23]: > 100 µM
GI50 [24]: 24.6 µM
TGI [24]: 63.1 µM
GI50 [25]: 31.8 µM
TGI [25]: 99.8 µM
GI50 [26]: 29.4 µM
TGI [26]: 72.9 µM
GI50 [27]: 39.2 µM
TGI [27]: > 100 µM
GI50 [28]: 18.7 µM
TGI [28]: 40.8 µM
GI50 [29]: 17 µM
TGI [29]: 45 µM
GI50 [30]: 27 µM
TGI [30]: 61.7 µM
GI50 [31]: 36 µM
TGI [31]: > 100 µM
GI50 [32]: 17.9 µM
TGI [32]: 36.6 µM
GI50 [33]: 21.1 µM
TGI [33]: 50.3 µM
GI50 [34]: 30.8 µM
TGI [34]: > 100 µM
GI50 [35]: 16.9 µM
TGI [35]: 34.5 µM
GI50 [36]: 14.7 µM
TGI [36]: 28 µM
GI50 [37]: 40.6 µM
TGI [37]: > 100 µM
GI50 [38]: 29.6 µM
TGI [38]: 95.1 µM
GI50 [39]: 22 µM
TGI [39]: 46.3 µM
GI50 [40]: 19.2 µM
TGI [40]: 38.4 µM
GI50 [41]: 18.1 µM
TGI [41]: 34.6 µM
GI50 [42]: 30.3 µM
TGI [42]: 96.1 µM
GI50 [43]: 18.4 µM
TGI [43]: 38.7 µM
GI50 [44]: 30.1 µM
TGI [44]: > 100 µM
GI50 [45]: 18.8 µM
TGI [45]: 33.1 µM
GI50 [46]: 48.7 µM
TGI [46]: > 100 µM
GI50 [47]: 20.9 µM
TGI [47]: 46.4 µM
GI50 [48]: 30.4 µM
TGI [48]: > 100 µM
GI50 [49]: 31.5 µM
TGI [49]: 93.3 µM
GI50 [50]: 26.7 µM
TGI [50]: 68 µM
GI50 [51]: 18.9 µM
TGI [51]: 59.4 µM
GI50 [52]: 19.5 µM
TGI [52]: 48.8 µM
GI50 [53]: 32.5 µM
TGI [53]: 48.8 µM
GI50 [54]: 44.7 µM
TGI [54]: > 100 µM
GI50 [55]: 22.5 µM
TGI [55]: 43.5 µM
GI50 [56]: 42.8 µM
TGI [56]: > 100 µM
